{
  "source": "patent US20030049320A1",
  "about": "“Novel in-situ forming controlled release microcarrier delivery system” (priority 2000, published 2003)",
  "origin": "cited, not measured here",
  "details": "intravenously as a solution, reported in the literature",
  "data": [
    {"smiles": "CC(=O)O[C@H]1C(=O)[C@@]2(C)[C@H]([C@H](OC(=O)c3ccccc3)[C@]3(O)C[C@H](OC(=O)[C@H](O)[C@@H](NC(=O)c4ccccc4)c4ccccc4)C(C)=C1C3(C)C)[C@]1(OC(C)=O)CO[C@@H]1C[C@@H]2O", "note": "[paclitaxel]", "values": [
      {"measurement": "Plasma elimination half-life of paclitaxel", "value": 1.1, "unit": "h"}
    ]}
  ]
}
